Assay [1] relates to muscle progenitors (hMP) from DMD hiPSC or WT hiPSC. Description: Myotube assay: myogenic activity (total myotube area per well). It counts as cell-based, human. The settings on record: for Emax: Homo sapiens, 72 h, myotube assay, compounds incubated 3 days, read-out: MA (normalized Myotube Area, efficacy). The method in brief:
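DMD or WT hiPSC-derived muscle progenitors plated on collagen I in K5 medium with 5 μM Y-27632, treated with compound (1.5 nM–30 μM) for 3 days at 37° C. Cells were fixed, stained for alpha-actinin and imaged for total myotube area per well. EC50 and normalized myotube area (MA) taken from duplicate-averaged data.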

For assay [2], the system named is satellite-like cells (Pax7-positive cells) in hMP. Description: Myotube assay: Pax7-positive (satellite-like) cell quantification. It counts as cell-based, human. On the set-up: key to Pax7% (pool of Pax7-positive cells) / Pax7: −: Depletes the pool of cells, while positively affects the myotubes; +: Maintains or increases the pool of cells, with at least 1 of the highest concentration known to be cytotoxic; ++: Maintains or increases the pool of cells, without any toxicity. As to conditions: for Pax7% (pool of Pax7-positive cells): myotube assay, compounds incubated 3 days. Summed up:
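DMD hiPSC-derived muscle progenitors (hMP) proliferated 4 days, then plated on collagen I in K5 medium with 5 μM Y-27632. Compound added at 1.5 nM–30 μM for 3 days at 37° C, then cells fixed and immunostained. Pax7-positive cells counted as percentage of total nuclei, duplicates averaged.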

Each structure is given as a SMILES string.

For the molecule `CC(C)(C)c1cc(NC(=O)Nc2ccc(Oc3ccnc4[nH]c(=O)cnc34)cc2F)n(-c2ncccn2)n1` [(m), 1-(3-(tert-butyl)-1-(pyrimidin-2-yl)-1H-pyrazol-5-yl)-3-(2-fluoro-4-((3-oxo-3,4-dihydropyrido[2,3-b]pyrazin-8-yl)oxy)phenyl)urea], the Emax in assay [1] lay in the range of 50 to 75%. Also, the “Pax7% (pool of Pax7-positive cells)” value in assay [2] is recorded as “++”.

Regarding `CC(C)(C)c1cc(NC(=O)Nc2ccc(Oc3ccnc4[nH]c(=O)cnc34)cc2F)n(-c2ccc3ncccc3c2)n1` [(n), 1-(3-(tert-butyl)-1-(quinolin-6-yl)-1H-pyrazol-5-yl)-3-(2-fluoro-4-((3-oxo-3,4-dihydropyrido[2,3-b]pyrazin-8-yl)oxy)phenyl)urea], the Emax in assay [1] was no less than 75%. The “Pax7% (pool of Pax7-positive cells)” value in assay [2] was “+”.

With `CC(=O)n1nc(C(C)(C)C)cc1NC(=O)Nc1ccc(Oc2ccnc3[nH]c(=O)cnc23)cc1F` [(o), 1-(1-acetyl-3-(tert-butyl)-1H-pyrazol-5-yl)-3-(2-fluoro-4-((3-oxo-3,4-dihydropyrido[2,3-b]pyrazin-8-yl)oxy)phenyl)urea], the Emax in assay [1] lay in the range of 25 to 50%. Moreover, the “Pax7% (pool of Pax7-positive cells)” value in assay [2] is on record as “++”.

Turning to `CC(C)(C)c1nc(NC(=O)Nc2ccc(Oc3ccnc4[nH]c(=O)cnc34)cc2F)n(-c2ccccc2)n1` [(p), 1-(3-(tert-butyl)-1-phenyl-1H-1,2,4-triazol-5-yl)-3-(2-fluoro-4-((3-oxo-3,4-dihydropyrido[2,3-b]pyrazin-8-yl)oxy)phenyl)urea], the Emax in assay [1] was in the range of 25 to 50%. The “Pax7% (pool of Pax7-positive cells)” value in assay [2] is listed as “++”.

In the case of `CC(C)(C)c1cc(NC(=O)Nc2ccc(Oc3ccnc4[nH]c(=O)cnc34)cc2F)sn1` [(q), 1-(3-(tert-butyl)isothiazol-5-yl)-3-(2-fluoro-4-((3-oxo-3,4-dihydropyrido[2,3-b]pyrazin-8-yl)oxy)phenyl)urea], the Emax in assay [1] fell in the range of 50 to 75%. Moreover, the “Pax7% (pool of Pax7-positive cells)” value in assay [2] was “++”.

Consider `CC(C)(C)c1nnc(NC(=O)Nc2ccc(Oc3ccnc4[nH]c(=O)cnc34)cc2F)s1` [(r), 1-(5-(tert-butyl)-1,3,4-thiadiazol-2-yl)-3-(2-fluoro-4-((3-oxo-3,4-dihydropyrido[2,3-b]pyrazin-8-yl)oxy)phenyl)urea], for which the Emax in assay [1] was no less than 75%. Moreover, the “Pax7% (pool of Pax7-positive cells)” value in assay [2] is “++”.

For `CC(C)(C)c1cc(NC(=O)Nc2ccc(Oc3ccnc4[nH]c(=O)cnc34)cc2)n(-c2ccccc2)n1` [(s), 1-(3-(tert-butyl)-1-phenyl-1H-pyrazol-5-yl)-3-(4-((3-oxo-3,4-dihydropyrido[2,3-b]pyrazin-8-yl)oxy)phenyl)urea], the Emax in assay [1] was 50 to 75%. For the same molecule, in assay [2], the “Pax7% (pool of Pax7-positive cells)” value is on record as “+”.

As to `CC(C)(C)c1cc(NC(=O)Nc2ccc(Oc3ccnc4[nH]c(=O)cnc34)nc2)n(-c2ccccc2)n1` [(t), 1-(3-(tert-butyl)-1-phenyl-1H-pyrazol-5-yl)-3-(6-((3-oxo-3,4-dihydropyrido[2,3-b]pyrazin-8-yl)oxy)pyridin-3-yl)urea], the Emax in assay [1] lay in the range of 25 to 50%. For the same molecule, the “Pax7% (pool of Pax7-positive cells)” value in assay [2] is listed as “+”.

On to `CC(C)(C)c1cc(NC(=O)Nc2ccc(Oc3ccnc4[nH]c(=O)cnc34)cn2)n(-c2ccccc2)n1` [(u), 1-(3-(tert-butyl)-1-phenyl-1H-pyrazol-5-yl)-3-(5-((3-oxo-3,4-dihydropyrido[2,3-b]pyrazin-8-yl)oxy)pyridin-2-yl)urea], for which the Emax in assay [1] lay in the range of 25 to 50%. Further, in assay [2], the “Pax7% (pool of Pax7-positive cells)” value was “++”.

For the molecule `CC(C)(C)c1cc(NC(=O)Nc2ccc(Oc3ccnc4[nH]c(=O)cnc34)cc2C(F)(F)F)n(-c2ccccc2)n1` [(v), 1-(3-(tert-butyl)-1-phenyl-1H-pyrazol-5-yl)-3-(4-((3-oxo-3,4-dihydropyrido[2,3-b]pyrazin-8-yl)oxy)-2-(trifluoromethyl)phenyl)urea], the Emax in assay [1] is no less than 75%. Moreover, the “Pax7% (pool of Pax7-positive cells)” value in assay [2] is “++”.

Consider `Cc1nc2c(Oc3ccc(NC(=O)Nc4cc(C(C)(C)C)nn4-c4ccccc4)c(F)c3)ccnc2c(=O)[nH]1` [(w), 1-(3-(tert-butyl)-1-phenyl-1H-pyrazol-5-yl)-3-(2-fluoro-4-((2-methyl-4-oxo-3,4-dihydropyrido[3,2-d]pyrimidin-8-yl)oxy)phenyl)urea], for which, in assay [1], the Emax is 50 to 75%. Further, the “Pax7% (pool of Pax7-positive cells)” value in assay [2] was “++”.

For the molecule `O=C(Nc1ccc(Oc2ccnc3[nH]c(=O)cnc23)cc1F)Nc1c2c(nn1-c1ccccc1)CCC2` [(x), 1-(2-fluoro-4-((3-oxo-3,4-dihydropyrido[2,3-b]pyrazin-8-yl)oxy)phenyl)-3-(2-phenyl-2,4,5,6-tetrahydrocyclopenta[c]pyrazol-3-yl)urea], the Emax in assay [1] lay in the range of 25 to 50%. The “Pax7% (pool of Pax7-positive cells)” value in assay [2] is reported as “++”.

For `O=C(Nc1ccc(Oc2ccnc3[nH]c(=O)cnc23)cc1F)Nc1c(-c2ccccc2)nn2c1CCC2` [(y), 1-(2-fluoro-4-((3-oxo-3,4-dihydropyrido[2,3-b]pyrazin-8-yl)oxy)phenyl)-3-(2-phenyl-5,6-dihydro-4H-pyrrolo[1,2-b]pyrazol-3-yl)urea], the Emax in assay [1] is 25 to 50%. Further, the “Pax7% (pool of Pax7-positive cells)” value in assay [2] is “++”.

On to `CSc1cc(Oc2ccnc3[nH]c(=O)cnc23)ccc1NC(=O)Nc1nnc(C(C)(C)C)s1` [(z), 1-(5-(tert-butyl)-1,3,4-thiadiazol-2-yl)-3-(2-(methylthio)-4-((3-oxo-3,4-dihydropyrido[2,3-b]pyrazin-8-yl)oxy)phenyl)urea], for which the Emax in assay [1] was no less than 75%. In addition, the “Pax7% (pool of Pax7-positive cells)” value in assay [2] is reported as “++”.

For orientation: EC50 means the midpoint of the concentration-response curve. Turning to `CC(C)(C)c1cc(NC(=O)Nc2ccc(Oc3ccnc4[nH]c(=O)cnc34)cc2F)n(-c2ccccc2)n1` [CCT196969], the MA result in assay [1] (comparative compounds, same assay, NA: non active) is reported as “++ (50%≤MA<75%)”. Also, the concentration for a half-maximal effect (EC50) in assay [1] (comparative compounds, same assay, NA: non active, read-out: EC50) was in the range of 0.5 to 1 µM. In addition, the Pax7 result in assay [2] (comparative compounds, same assay) is given as “+”.

These data come from patent US20230089368A1, “POLYAROMATIC UREA DERIVATIVES AND THEIR USE IN THE TREATMENT OF MUSCLE DISEASES” (ANAGENESIS BIOTECHNOLOGIES S.A.S., priority 2019, published 2023).
